Data as given in patent US12428398B2, “2-(2,4,5-substituted phenylamino) pyrimidine derivative and crystalline form B thereof” (Henan Genuine Biotech Co., Ltd., priority 2019, dated 2025).

Experiments:
wild EGFR = wild EGFR (Homo sapiens, UniProt P00533); conditions: J. Med. Chem. 2014; cited from earlier work
[1] = Pharmacokinetics of Dositinib and AZD9291 in rats; conditions: for T1/2: parent drug; for AUC0-last / Cmax: parent drug in plasma; for Cmax: intragastric 12 mg/kg per FIGS. 2-5
Source text: Preparation of Test Solution
2) Preparation of Orally Administered Preparations • a) Weigh an appropriate amount of compound powders into a container; • b) Add an appropriate volume of 0.5% HPMC (hydroxypropyl methylcellulose, 4000 CP) aqueous solution to the container, and continuously stir or whirl until a uniform solution was obtained; • c) Add the remaining volume of 0.5% HPMC (hydroxypropyl methylcellulose, 4000 CP) aqueous solution to the container to a final volume, and continuously stir or whirl until the solution was uniform.
The preparation for intragastric administration was prepared the day before administration and analyzed. When the preparation was not in use, it was stored in a refrigerator at 2° C. to 8° C. and used within 8 days.
Animal: Rats (SD) from Beijing Vital River Laboratory Animal Technology Co., Ltd. 36 rats (18 males and 18 females), 6-10 weeks old, 200-300 g (males); 170-280 g (female). […] The animals in the sixth group were administered with AZD9291 (mesylate) solution by gavage, with a dose volume of 10 mL/kg. The blood samples were taken at the following time points after administration to measure the blood drug concentrations: 0.083, 0.25, 0.5, 1, 2, 4, 6, 8, 12 and 24 hours.
Administration: Whole blood samples were collected through jugular vein puncture (or other appropriate blood collection sites) at the specified time (about 0.15 mL in the fifth group and 0.23 mL in other groups), with wet ice operation throughout the whole process, and the actual blood collection time was recorded in the experimental records. The acceptable error of collection time point was ±1 minute within 1 hour of administration, and ±5% of theoretical time for other time points. The blood samples were immediately transferred to labeled commercial tubes containing K2-EDTA and then centrifuged (3,000 g, 4° C., 15 min) for plasma collection.
Retention time, chromatogram collection and chromatogram integration of compounds and internal standards were processed by Software Analyst (Applied Biosystems), and data statistics were processed by software Watson LIMS (Thermo Fisher Scientific) or Analyst (Applied Biosystems). The unit of the analyte concentration in the sample was nM, three significant figures were reserved, and all values expressed in percentage (such as % deviation and % coefficient of variation, etc.) were reserved to one decimal place.
Data analysis and reporting: WinNonlin™ Version 6.3 (Pharsight, Mountain View, CA) or above pharmacokinetic software for non-atrioventricular models was used to process the blood drug concentration, and the linear logarithm trapezoid method was used to calculate the pharmacokinetic parameters.

[2] = system: Human non-small cell lung cancer HCC827 cell subcutaneous xenograft; conditions: HCC-827 nude mouse model, PO QD
Procedure: Example 5 In Vivo Pharmacodynamics of Crystalline Form B of Dositinib and AZD9291 on Human Non-Small Cell Lung Cancer HCC827 Cell Subcutaneous Xenograft BALB/C Nude Mouse Model
Human non-small cell lung cancer HCC827 (ATCC-CRL-2868) was monolayer cultured in vitro. The culture conditions were: RPMI-1640 medium with 10% fetal bovine serum, 100 U/mL penicillin and 100 g/mL streptomycin, in a 5% CO2 incubator at 37° C. Trypsin EDTA was used for routine digestion twice a week. When the cell saturation was 80%-90% and the number reached the requirements, the cells were collected, counted and transplanted.
Animals: BALB/c nude mouse, female, 6-8 weeks old, weight 18-22 g. […]
Experimental index: to investigate whether the tumor growth is inhibited, delayed or cured. The tumor diameter was measured with a vernier caliper twice a week. […]
The antitumor effect of the compound was evaluated by tumor growth inhibition value (TGI) (%) or relative tumor proliferation rate T/C (%). […]
Relative tumor proliferation rate T/C (%): the calculation is as follows: T/C %=TRTV/CRTV×100% (TRTV: treatment group RTV; CRTV: negative control group RTV). The relative tumor volume (RTV) is calculated according to the results of tumor measurement. […]
At the end of the experiment, the tumor weight is measured and the percentage of Tweight/Cweight is calculated. […]

Sequence of wild EGFR (P00533 25-1210): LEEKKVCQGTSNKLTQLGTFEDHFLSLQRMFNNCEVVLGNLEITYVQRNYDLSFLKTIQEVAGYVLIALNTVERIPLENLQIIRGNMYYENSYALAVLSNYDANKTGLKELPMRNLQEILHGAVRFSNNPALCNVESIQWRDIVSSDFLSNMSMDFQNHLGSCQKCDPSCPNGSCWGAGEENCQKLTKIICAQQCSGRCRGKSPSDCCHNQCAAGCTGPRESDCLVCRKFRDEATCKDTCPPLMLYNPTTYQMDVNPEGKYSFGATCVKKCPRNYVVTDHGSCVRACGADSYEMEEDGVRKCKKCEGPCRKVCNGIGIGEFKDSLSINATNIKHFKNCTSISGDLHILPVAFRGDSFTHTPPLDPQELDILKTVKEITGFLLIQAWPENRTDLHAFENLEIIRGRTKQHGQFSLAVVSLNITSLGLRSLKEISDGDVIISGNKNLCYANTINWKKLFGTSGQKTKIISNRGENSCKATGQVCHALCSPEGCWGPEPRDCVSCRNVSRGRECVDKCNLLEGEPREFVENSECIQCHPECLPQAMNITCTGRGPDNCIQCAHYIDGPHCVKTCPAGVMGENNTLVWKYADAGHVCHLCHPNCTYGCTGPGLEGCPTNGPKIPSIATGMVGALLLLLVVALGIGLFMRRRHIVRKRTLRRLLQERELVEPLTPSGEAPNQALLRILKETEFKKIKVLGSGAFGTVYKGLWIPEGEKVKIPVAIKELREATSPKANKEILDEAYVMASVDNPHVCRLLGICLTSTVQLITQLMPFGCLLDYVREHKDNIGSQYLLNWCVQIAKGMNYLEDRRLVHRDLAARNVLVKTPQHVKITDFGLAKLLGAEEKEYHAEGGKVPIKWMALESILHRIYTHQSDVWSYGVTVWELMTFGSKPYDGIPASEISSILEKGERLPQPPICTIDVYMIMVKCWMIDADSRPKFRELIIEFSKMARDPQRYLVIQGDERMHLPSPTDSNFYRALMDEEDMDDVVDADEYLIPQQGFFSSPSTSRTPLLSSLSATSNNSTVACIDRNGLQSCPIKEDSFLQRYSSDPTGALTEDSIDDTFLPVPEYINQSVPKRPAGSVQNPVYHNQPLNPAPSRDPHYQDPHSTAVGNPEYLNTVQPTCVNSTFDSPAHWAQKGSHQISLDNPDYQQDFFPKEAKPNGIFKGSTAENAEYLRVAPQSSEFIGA

Compound	inhibitory activity on wild EGFR, times stronger than that of Osimertinib (wild EGFR)	T1/2 ([1]; female rats)	AUC0-last ([1]; female rats)	Cmax ([1]; female rats)	T1/2 ([1]; male rats)	AUC0-last ([1]; male rats)	Cmax ([1]; male rats)	anticancer activity relative to AZD9291 (Osimertinib, mixture of crystalline forms A and B) [2]	anticancer activity of 0.5 mg/kg compared with 1 mg/kg of AZD9291 ([2]; 0.5 mg/kg)
C=CC(=O)Nc1cc(Nc2nccc(-c3c[nH]c4ccccc34)n2)c(OC)cc1N(C)CCN(C)C [AZ5104]	14.5 times								
C=CC(=O)Nc1cc(Nc2nccc(-c3cn(C)c4ccccc34)n2)c(OC)cc1N(C)CCN(C)C [AZD9291 (crystalline form A + B), Osimertinib, reference compound]		5.59 h	2592 ng·h/mL	207 ng/mL	3.40 h	907 ng·h/mL	106 ng/mL		
CS(=O)(=O)O.[2H]C([2H])=CC(=O)Nc1cc(Nc2nccc(-c3cn(C([2H])([2H])[2H])c4ccccc34)n2)c(OC)cc1N(C)CCN(C)C [Dositinib (crystalline form A + B), N-(2-(((2-(Dimethylamino)ethyl)) (methyl)amino)-4-methoxy-5-((4-(d3-1-methyl-1H-indol-3-yl)pyrimidin-2-yl)amino)phenyl) d2-acrylamide-mesylate]		6.77 h	2650 ng·h/mL	205 ng/mL	3.70 h	915 ng·h/mL	110 ng/mL		
CS(=O)(=O)O.[2H]C([2H])=CC(=O)Nc1cc(Nc2nccc(-c3cn(C([2H])([2H])[2H])c4ccccc34)n2)c(OC)cc1N(C)CCN(C)C [Dositinib (crystalline form B), N-(2-(((2-(Dimethylamino)ethyl)) (methyl)amino)-4-methoxy-5-((4-(d3-1-methyl-1H-indol-3-yl)pyrimidin-2-yl)amino)phenyl) d2-acrylamide-mesylate]		6.85 h	3105 ng·h/mL	208 ng/mL	3.87 h	1100 ng·h/mL	115 ng/mL	twice	equivalent
